# Assay results published in patent US20250019381A1, “PROCESS FOR THE […] OF 6-((3S,4S)-4-METHYL-1-(PYRIMIDIN-2-[…])PYRROLIDIN-3-YL)-3-(TETRAHYDROPYRAN-4-YL-7H-IMIDAZO[1,5-a]PYRAZIN-8-ONE” (Cardurion Pharmaceuticals, Inc., priority 2017, published 2025).
# How the values were obtained:
# [1] = Blood Brain Barrier penetration: plasma and brain concentration; type: in vivo
# PDE1 = PDE1 inhibition IC50; type: biochemical
# [2] = Stability study of solution in purified water; type: physicochemical; details: approximately 40 mg/mL in purified water, refrigerated and ambient, 8 days
# Protocol: In another stability study, Compound P3.1 was dissolved at approximately 40 mg/mL of purified water and evaluated for purity over a period of 8 days. Samples were stored at both refrigerated and ambient conditions, and tested at T=0, Day 2, and Day 8.
# [3] = Stability study of drug substance in polyethylene/aluminum pouches; type: physicochemical; details: solid, ambient temperature and 40° C.-45° C. (no humidity control), 3-month period
# Protocol: A stability study has been completed on Compound P3.1. Samples of Compound P3.1 were aliquoted into double-walled polyethylene pouches, which were tied off and then heat-scaled in an aluminum pouch. Samples were stored at ambient temperature and at 40° C.-45° C. (no humidity control) with testing performed over a 3-month period.
# PDE9 = PDE9 (Homo sapiens (Human), UniProt O76083); type: biochemical
# PDE9, sequence (O76083 whole entry): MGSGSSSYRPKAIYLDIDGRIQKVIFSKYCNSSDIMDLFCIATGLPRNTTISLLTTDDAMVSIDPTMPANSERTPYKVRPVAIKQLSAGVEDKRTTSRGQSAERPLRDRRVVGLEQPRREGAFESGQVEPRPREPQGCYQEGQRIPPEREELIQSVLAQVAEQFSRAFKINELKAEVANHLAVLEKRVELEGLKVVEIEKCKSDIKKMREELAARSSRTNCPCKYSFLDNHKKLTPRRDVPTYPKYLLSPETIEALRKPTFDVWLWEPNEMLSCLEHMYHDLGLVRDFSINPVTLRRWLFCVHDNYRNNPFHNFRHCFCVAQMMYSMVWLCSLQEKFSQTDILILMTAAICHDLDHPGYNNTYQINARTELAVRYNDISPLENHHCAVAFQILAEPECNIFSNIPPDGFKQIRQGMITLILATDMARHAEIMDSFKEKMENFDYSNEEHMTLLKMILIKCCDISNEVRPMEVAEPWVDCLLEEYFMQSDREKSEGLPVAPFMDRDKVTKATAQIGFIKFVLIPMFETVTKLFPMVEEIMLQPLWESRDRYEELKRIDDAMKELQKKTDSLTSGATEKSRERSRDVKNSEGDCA
SMILES,Brain concentration after 30 minutes ([1]; 30 min),Brain concentration after 120 minutes ([1]; 120 min),"Plasma concentration after 120 minutes ([1]; plasma, 120 min)",IC50 (PDE1) [nM],also measured
O=c1[nH]c(CN2CC(Oc3ccncc3)C2)cn2c(-c3ccc(F)cc3)ncc12 [Compound P1],,,,,Brain/Plasma ratio after 30 minutes ([1]; 30 min): 0.06; Brain/Plasma ratio after 120 minutes ([1]; 120 min): 0.08
O=c1[nH]c(CN2CC(Oc3cccnc3)C2)cn2c(C3CCOCC3)ncc12 [Compound P2],Below,Below,,,
"C[C@@H]1CN(Cc2ncccn2)C[C@H]1c1cn2c(C3CCOCC3)ncc2c(=O)[nH]1 [Compound P3.1, (3S,4S)-6-(4-methyl-1-pyrimidin-2-ylmethyl-pyrrolidin-3-yl)-3-(tetrahydro-pyran-4-yl)-7H-imidazo[1,5-a]pyrazin-8-one]",30 min.: 67 ng/mL,120 min.: 7 ng/mL,120 min.: 226 ng/mL,3000,"Plasma concentration after 30 minutes ([1]; plasma, 30 min): 30 min.: 1620 ng/mL; Change to purity of the compound or appearance of the solution [2]: No significant change; Changes to appearance or purity of the material on storage [3]: no changes to appearance or purity; IC50 (PDE9): 10 nM"
C[C@@H]1CN(Cc2ncccn2)C[C@H]1c1nc2c(cnn2C2CCOCC2)c(=O)[nH]1 (relative stereo),,,,2500,
O=c1[nH]c(CN2CC(OCc3ccc(F)cc3)C2)nn2c(C3CCOCC3)ncc12 [Compound P4],,,120 min.: 352 ng/mL,,
